Laboratory results taken from the supplement of paper PMC13380429.

Tests used:
Settings in all cases: 72 h
HepG2 [1] = experiment: cell viability relative to DMSO; higher = less toxic
Caco-2 [2] = experiment: as above
Vero E6 [3] = experiment: as above
U2OS [4] = experiment: as above
Calu-3 [5] = experiment: as above
HepG2 [6] = experiment: drug sensitivity score (DSS) for viability; higher = more toxic; extreme values may be limits of the assay
Caco-2 [7] = experiment: as above
Vero E6 [8] = experiment: as above
U2OS [9] = experiment: as above
Calu-3 [10] = experiment: as above
HepG2 [11] = experiment: relative viability EC50 (midpoint between 100% and the lowest measured viability); higher = less toxic
Caco-2 [12] = experiment: as above
Vero E6 [13] = experiment: as above
U2OS [14] = experiment: as above
Calu-3 [15] = experiment: as above

| SMILES | cell viability (HepG2 [1]; 1 nM) | cell viability (HepG2 [1]; 10 nM) | cell viability (HepG2 [1]; 100 nM) | cell viability (HepG2 [1]; 1000 nM) | cell viability (HepG2 [1]; 10000 nM) | cell viability (Caco-2 [2]; 1 nM) | cell viability (Caco-2 [2]; 10 nM) | cell viability (Caco-2 [2]; 100 nM) | cell viability (Caco-2 [2]; 1000 nM) | cell viability (Caco-2 [2]; 10000 nM) | cell viability (Vero E6 [3]; 1 nM) | cell viability (Vero E6 [3]; 10 nM) | cell viability (Vero E6 [3]; 100 nM) | cell viability (Vero E6 [3]; 1000 nM) | cell viability (Vero E6 [3]; 10000 nM) | cell viability (U2OS [4]; 1 nM) | cell viability (U2OS [4]; 10 nM) | cell viability (U2OS [4]; 100 nM) | cell viability (U2OS [4]; 1000 nM) | cell viability (U2OS [4]; 10000 nM) | cell viability (Calu-3 [5]; 1 nM) | cell viability (Calu-3 [5]; 10 nM) | cell viability (Calu-3 [5]; 100 nM) | cell viability (Calu-3 [5]; 1000 nM) | cell viability (Calu-3 [5]; 10000 nM) | drug sensitivity score (HepG2 [6]) | drug sensitivity score (Caco-2 [7]) | drug sensitivity score (Vero E6 [8]) | drug sensitivity score (U2OS [9]) | drug sensitivity score (Calu-3 [10]) | relative viability EC50 (HepG2 [11]) | relative viability EC50 (Caco-2 [12]) | relative viability EC50 (Vero E6 [13]) | relative viability EC50 (U2OS [14]) | relative viability EC50 (Calu-3 [15]) |
| --- | --- | --- | --- | --- | --- | --- | --- | --- | --- | --- | --- | --- | --- | --- | --- | --- | --- | --- | --- | --- | --- | --- | --- | --- | --- | --- | --- | --- | --- | --- | --- | --- | --- | --- | --- |
| C#C[C@]1(OC(C)=O)CC[C@H]2[C@@H]3CCC4=C[C@@H](OC(C)=O)CC[C@@H]4[C@H]3CC[C@@]21C [ethynodiol-diacetate] | 104% | 104% | 97.3% | 103% | 107% | 88.6% | 96.9% | 92.4% | 100% | 88.8% | 98.6% | 103% | 104% | 98.6% | 108% | 99% | 98.7% | 99.6% | 97.6% | 92.4% | 99.4% | 132% | 103% | 99.6% | 102% | 0 | 0 | 0 | 0 | 0 | > 10 µM | > 10 µM | > 10 µM | > 10 µM | > 10 µM |
| NCC(CC(=O)O)c1ccccc1 (stereo not given) [fenigam] | 95.1% | 97.2% | 92.4% | 106% | 110% | 93.3% | 105% | 101% | 87.8% | 112% | 100% | 95.8% | 97.6% | 101% | 111% | 93.5% | 91.1% | 97.3% | 95.4% | 98.3% | 95.4% | 97.6% | 100% | 97.4% | 97.4% | 0 | 0 | 0 | 0 | 0 | > 10 µM | > 10 µM | > 10 µM | > 10 µM | > 10 µM |
| Nc1nc(=O)n([C@@H]2O[C@H](CO)[C@@H](O)[C@@H]2F)cc1I [fiacitabine] | 104% | 91.4% | 96.1% | 106% | 83.6% | 93.8% | 99.5% | 90.1% | 84.3% | 93.2% | 98.9% | 97.6% | 98.9% | 100% | 96.7% | 99.8% | 104% | 93.6% | 98.6% | 100% | 93.1% | 102% | 102% | 109% | 96% | 0.2 | 0.2 | 0 | 0 | 0 | > 10 µM | > 10 µM | > 10 µM | > 10 µM | > 10 µM |
| O=C1OC2(c3ccc(O)cc3Oc3cc(O)ccc32)c2ccccc21 [fluorescein] | 97.9% | 99.1% | 108% | 94.7% | 97.7% | 108% | 116% | 117% | 120% | 98.3% | 102% | 94.6% | 106% | 107% | 101% | 99.5% | 101% | 95.2% | 97.7% | 92.5% | 97.5% | 101% | 101% | 93.6% | 101% | 0 | 0 | 0 | 0 | 0 | > 10 µM | > 10 µM | > 10 µM | > 10 µM | > 10 µM |
| NNC(=O)CN1C(=O)CN=C(c2ccccc2)c2cc(Br)ccc21 [gidazepam] | 106% | 92.2% | 109% | 106% | 106% | 95.8% | 92.7% | 94.4% | 90.2% | 95.7% | 99.3% | 102% | 93% | 94.1% | 102% | 96.5% | 92.2% | 96.8% | 91% | 97.5% | 104% | 99% | 100% | 110% | 98.5% | 0 | 0 | 0 | 0 | 0 | > 10 µM | > 10 µM | > 10 µM | > 10 µM | > 10 µM |
| N=C(N)N/N=C/c1c(Cl)cccc1Cl [guanaben-acetate] | 98.1% | 102% | 102% | 93.9% | 101% | 94.3% | 95.8% | 87.3% | 95.4% | 90.7% | 95.3% | 102% | 100% | 97.5% | 97.7% | 96.9% | 96.2% | 94.6% | 97.7% | 91.5% | 91.7% | 94.2% | 91% | 99.7% | 92.1% | 0 | 0 | 0 | 0 | 0 | > 10 µM | > 10 µM | > 10 µM | > 10 µM | > 10 µM |
| CC(C)(N)C(=O)N[C@H](COCc1ccccc1)C(=O)N1CCC2(CC1)CN(S(C)(=O)=O)c1ccccc12 [ibutamoren] | 102% | 89.5% | 95.6% | 98% | 95.6% | 93.6% | 98.4% | 99% | 100% | 95.8% | 104% | 103% | 98.1% | 95.6% | 108% | 100% | 100% | 96.9% | 102% | 100% | 111% | 108% | 98% | 105% | 91% | 0 | 0 | 0 | 0 | 0 | > 10 µM | > 10 µM | > 10 µM | > 10 µM | > 10 µM |
| CCOC(=O)[C@H](CCc1ccccc1)N[C@@H](C)C(=O)N1C(=O)N(C)C[C@H]1C(=O)O [imidapril] | 94.6% | 103% | 104% | 113% | 104% | 95.1% | 87.8% | 93.9% | 97.6% | 97.8% | 104% | 98.3% | 98.1% | 101% | 99.9% | 101% | 93.4% | 97.7% | 95.7% | 102% | 98.5% | 96.4% | 99.8% | 97.5% | 96.8% | 0 | 0 | 0 | 0 | 0 | > 10 µM | > 10 µM | > 10 µM | > 10 µM | > 10 µM |
| Cc1ccc2c(c1)c1c(n2CCc2ccc(C)nc2)CCN(C)C1 [latrepirdine] | 108% | 102% | 118% | 98.8% | 99.7% | 106% | 99.4% | 97.9% | 96% | 91% | 98% | 102% | 104% | 96.5% | 93.6% | 100% | 100% | 97.7% | 95.8% | 93.7% | 97.5% | 97.4% | 101% | 103% | 95.4% | 0 | 0 | 0 | 0 | 0 | > 10 µM | > 10 µM | > 10 µM | > 10 µM | > 10 µM |
| C[C@@H]1NC(=O)[C@@H]2CCCN2C(=O)[C@H](CC(N)=O)NC(=O)[C@@H]2CSSC[C@H](N)C(=O)N[C@H]3CSSC[C@H](NC1=O)C(=O)N[C@@H]([C@@H](C)O)C(=O)NCC(=O)N[C@H](C(=O)N[C@@H](Cc1ccc(O)cc1)C(=O)O)CSSC[C@H](NC(=O)[C@H](Cc1ccc(O)cc1)NC(=O)[C@H](CCC(=O)O)NC3=O)C(=O)N2 [linaclotide] | 93.6% | 93.8% | 102% | 88.9% | 94.2% | 98.8% | 98.9% | 104% | 110% | 95.1% | 100% | 106% | 104% | 91.1% | 103% | 101% | 101% | 97.3% | 100% | 95.8% | 90.3% | 91.2% | 83.9% | 107% | 97.2% | 0 | 0 | 0 | 0 | 0 | > 10 µM | > 10 µM | > 10 µM | > 10 µM | > 10 µM |
| Cc1cccc(C)c1OCC(=O)N[C@@H](Cc1ccccc1)[C@@H](O)C[C@H](Cc1ccccc1)NC(=O)[C@H](C(C)C)N1CCCNC1=O [lopinavir] | 107% | 106% | 108% | 104% | 86.5% | 90.9% | 102% | 102% | 93.9% | 84.8% | 103% | 99.1% | 104% | 101% | 110% | 101% | 107% | 100% | 101% | 93.3% | 103% | 90.1% | 97.3% | 102% | 104% | 0.1 | 0.7 | 0 | 0 | 0 | > 10 µM | > 10 µM | > 10 µM | > 10 µM | > 10 µM |
| Cc1ccccc1OCC(O)CO (stereo not given) [mephenesin] | 107% | 113% | 109% | 102% | 99.8% | 90.8% | 96.5% | 94.4% | 93.1% | 92.7% | 110% | 103% | 99.6% | 102% | 98.4% | 101% | 96.8% | 104% | 97.1% | 100% | 111% | 91.1% | 103% | 101% | 106% | 0 | 0 | 0 | 0 | 0 | > 10 µM | > 10 µM | > 10 µM | > 10 µM | > 10 µM |
| O=C1NC(=S)NC(=O)C1C(=O)Nc1ccccc1 [merbarone] | 104% | 87.2% | 100% | 99.8% | 102% | 94.7% | 93.3% | 103% | 94% | 94.5% | 100% | 91.6% | 93.9% | 92.7% | 106% | 93.9% | 96.3% | 97.4% | 103% | 104% | 99.3% | 100% | 105% | 106% | 110% | 0 | 0 | 0 | 0 | 0 | > 10 µM | > 10 µM | > 10 µM | > 10 µM | > 10 µM |
